Holding throughout (assay type): cell-based
The subject of data set [1] is HaCaT cells. The data set can be described thus: Resistance to UVB-induced cell damage (CCK-8 viability). To be noted: 1 μM, UVB 500 mJ/cm2, serum-free medium, negative control about 40%. Here is the method:
Among the ultraviolet wavelengths, UVB wavelengths corresponding to 280 to 315 nm penetrate the epidermal layer where many keratinocytes exist to cause cell damage.
The solvent DMSO was used as a negative control group, and the cell viability was measured using the CCK-8 method used in Experimental Example 6.

Data set [2] deals with HaCaT cells. The data set can be described thus: Wound healing assay. To be noted: 1 μM. The protocol: The cell growth promoting effect of Isoprocurcumenol was confirmed through wound healing assay. Specifically, after fully culturing HaCaT cells in a 12-well plate, cells on a certain area were scraped off using a yellow tip to form a wound area, changed to a serum-free medium, and treated with 1 μM of Isoprocurcumenol.

In data set [3] the test system is ERK. Description: ERK activation (phosphorylation) by Western blotting in HaCaT cells. To be noted: 10 μM. The protocol: (§1) It is well known that the activities of extracellular signal-regulated kinase (ERK) and protein kinase B (AKT) transmit signals necessary for cell growth and survival by the activities of an EGFR. In addition, in Experimental Example 1, it was observed that Isoprocurcumenol generated signals due to activation of the EGFR in the cells of the biosense system for measuring the activities of the EGFR. Accordingly, it was measured whether the activities of the EGFR were induced by Isoprocurcumenol to the activities of the ERK and AKT.
(§2) Specifically, HaCaT cells were cultured in a serum-free medium, treated with 10 μM of Isoprocurcumenol for 10 minutes, 30 minutes and 60 minutes, respectively, and, thereafter, phosphorylated and activated ERK and AKT were analyzed by Western blotting. As antibodies, a phosphorylation antibody as a marker of activated ERK and AKT, and a general antibody for measuring all thereof were used, respectively.
A general note: In western blotting, separated proteins are transferred to a membrane and probed.

The test system of data set [4] is c-fos. The data set can be described thus: c-fos gene expression by real-time quantitative PCR in HaCaT cells. Particulars: 10 μM, 1 hour, serum-free medium. An excerpt: (§3) Signaling by an EGFR induces the expression of genes important for cell growth and survival through important signaling mediator proteins such as ERK and AKT. The egr1, c-myc, c-jun and c-fos genes are regulated by the EGFR and are well known as genes that promote cell growth and survival.
(§4) Specifically, Tri-reagent was used for mRNA extraction, cDNA was created by a reverse transcription polymerase chain reaction (RT-PCR) using a poly-A primer and a reverse transcriptase, and real-time quantitative PCR was used to measure the amount of each mRNA. The amount of each mRNA was corrected with the amount of β-actin, which is a constitutive gene.

Data set [5] relates to c-jun. The data set can be described thus: c-jun gene expression by real-time quantitative PCR in HaCaT cells. Particulars: 10 μM, 1 hour, serum-free medium.
Source text: as §3, §4

Data set [6] has as its system AKT. The data set can be described thus: AKT activation (phosphorylation) by Western blotting in HaCaT cells. Particulars: 10 μM. The protocol:
as §1, §2

The subject of data set [7] is HaCaT cells. The data set can be described thus: MTT cytotoxicity assay in HaCaT keratinocytes. The protocol: The cytotoxicity of Isoprocurcumenol was measured using HaCaT cells as keratinocytes.
When cells are treated with MTT tetrazolium which is a yellow water-soluble substrate, such a substrate is reduced to MTT formazan by mitochondrial enzymes, and the color changes to blue-purple. That is, since the blue-violet color appears darker as the number of living cells increases, the blue-violet absorbance at a wavelength of 540 nm reflects the concentration of living cells.
Specifically, after culturing cells to fill each well of a 96-well plate, the cells were treated with Isoprocurcumenol at concentrations of 0, 10, 25, 50 and 100 μM, and cultured for 24 hours and 48 hours in a 5% CO2 incubator at 37° C. Thereafter, cell viability was measured using MTT reagent. A control group not treated with Isoprocurcumenol (0 μM) was treated with the same amount of the solvent DMSO.
For orientation: Formazan colour is commonly taken as a measure of viable cells.

In data set [8] the test system is HaCaT cells. The data set can be described thus: CCK-8 assay of growth and proliferation of keratinocytes. Particulars: 24 hours, serum-free medium, p<0.05. Here is the method: Cell counting kit-8 (CCK-8) is a water-soluble tetrazolium salt reagent called WST-8 and forms orange-colored water-soluble Formazan by dehydrogenase in the mitochondria of living cells.
Specifically, after culturing 1×10^4 HaCaT cells in a 96-well plate for 24 hours, the cells were changed to a serum-free medium to remove the growth factors contained in the medium, and treated with Isoprocurcumenol at the concentrations of 1 nM, 10 nM, 100 nM, 1 μM and 10 μM. […] After cultured for 24 hours, the cells were treated with CCK8, and the cell growth was analyzed by measuring absorbance at 450 nm.

Data set [9] deals with EGFR (Homo sapiens, UniProt P00533). The data set can be described thus: EGFR activity measurement biosensor system (EGFP-SH2 fluorescence). To be noted: 100 μM; cells cultured 24 hours in serum-free medium; compared to DMSO control. The protocol: In addition, by using the feature that, when the activities of the EGFR continue to be maintained, the EGFR is internalized into the cell, the cell of the biosensor system that may measure the activities of the EGFR was used in the present experimentation (see Korean Laid-open Patent Publication No. 2019-0014340).
EGFR, sequence (P00533 25-1210, species assumed): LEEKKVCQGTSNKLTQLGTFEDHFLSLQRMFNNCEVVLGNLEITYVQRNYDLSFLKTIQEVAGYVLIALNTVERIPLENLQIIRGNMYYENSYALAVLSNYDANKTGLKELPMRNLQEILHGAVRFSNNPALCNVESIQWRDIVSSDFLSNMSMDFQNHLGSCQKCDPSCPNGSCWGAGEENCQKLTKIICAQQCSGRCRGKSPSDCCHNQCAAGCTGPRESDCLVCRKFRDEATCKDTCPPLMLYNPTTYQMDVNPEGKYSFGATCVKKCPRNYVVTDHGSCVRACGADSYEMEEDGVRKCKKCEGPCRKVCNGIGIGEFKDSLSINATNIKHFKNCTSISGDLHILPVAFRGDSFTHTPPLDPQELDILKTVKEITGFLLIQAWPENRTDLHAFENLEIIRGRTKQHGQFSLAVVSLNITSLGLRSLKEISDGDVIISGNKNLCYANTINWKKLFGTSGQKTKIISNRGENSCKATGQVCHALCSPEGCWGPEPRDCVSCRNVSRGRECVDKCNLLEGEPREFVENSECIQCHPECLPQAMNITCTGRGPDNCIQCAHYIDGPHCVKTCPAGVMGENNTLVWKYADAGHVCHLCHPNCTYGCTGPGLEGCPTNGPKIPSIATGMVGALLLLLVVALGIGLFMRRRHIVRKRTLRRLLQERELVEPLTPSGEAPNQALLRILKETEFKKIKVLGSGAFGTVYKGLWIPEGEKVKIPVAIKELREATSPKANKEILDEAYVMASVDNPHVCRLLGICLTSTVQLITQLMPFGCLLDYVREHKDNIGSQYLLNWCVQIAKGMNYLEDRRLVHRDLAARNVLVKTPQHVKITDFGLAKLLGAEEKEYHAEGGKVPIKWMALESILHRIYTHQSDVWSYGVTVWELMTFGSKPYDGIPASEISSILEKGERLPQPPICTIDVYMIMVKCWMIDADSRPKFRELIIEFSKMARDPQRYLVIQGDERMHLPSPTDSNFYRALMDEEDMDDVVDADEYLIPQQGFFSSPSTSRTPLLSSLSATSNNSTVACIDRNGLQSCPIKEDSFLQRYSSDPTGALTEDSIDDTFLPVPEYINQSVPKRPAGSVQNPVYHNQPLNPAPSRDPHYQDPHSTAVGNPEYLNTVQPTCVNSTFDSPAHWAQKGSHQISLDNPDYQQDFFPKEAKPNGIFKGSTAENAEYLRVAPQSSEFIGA
After culturing the cells in a serum-free medium for 24 hours, the cells were treated with Isoprocurcumenol.

The test system of data set [10] is egr1. The data set can be described thus: egr1 gene expression by real-time quantitative PCR in HaCaT cells. To be noted: 10 μM, 1 hour, serum-free medium.
Source text: as §3, §4

Data set [11] concerns c-myc. The data set can be described thus: c-myc gene expression by real-time quantitative PCR in HaCaT cells. To be noted: 10 μM, 1 hour, serum-free medium.
Source text: as §3, §4

Results on one molecule are retold here after patent publication US20230320957A1, “COMPOSITION FOR ANTI-AGING OR SKIN REGENERATION COMPRISING ISOPROCURCUMENOL” (POSCO, priority 2020, published 2023).

For `C=C1CC(=O)C(=C(C)C)C[C@H]2[C@H]1CC[C@]2(C)O` [Isoprocurcumenol], in data set [1], the “cells survived after UVB” value was “about 60%”. Moreover, the “filling of wound area vs negative control” value in [2] (culture for 6 days, serum-free medium) is “more quickly filled”. In data set [2] (from the 3rd day, t-test p<0.05), the “difference in wound area vs negative control” value is recorded as “more significant difference”. In data set [3], the “time to ERK activation” value was no more than 30 min. The “induction of ERK activity” value in data set [3] (10 minutes, serum-free medium) is on record as “sufficiently induced”. Also, the “c-fos mRNA (corrected with β-actin)” value in [4] is recorded as “increased”. In data set [5], the “c-jun mRNA (corrected with β-actin)” value is on record as “increased”. For the same molecule, the “time to AKT activation” value in data set [6] was no more than 30 min. The “induction of AKT activity” value in [6] (10 minutes, serum-free medium) is “sufficiently induced”. The “cytotoxicity in keratinocytes (overall)” value in [7] (0-100 μM, 24 hours and 48 hours, MTT) is “very low”. For the same molecule, the “cytotoxicity (difference in cell viability)” value in data set [7] (100 μM, cultured 48 hours, MTT) was found to be 10%. In addition, the cytotoxicity entry in data set [7] (concentration of 10 μM or less) is on record as “free of cytotoxicity”. Also, the “growth and proliferation of cells vs negative control” value in data set [8] (10 nM), in data set [8] (100 nM), in data set [8] (1 μM) and in data set [8] (10 μM) was “significantly increased” each time. Besides, in data set [9], the “EGFR activation (fluorescence signal of biosensor cells)” value was “activated”. For the same molecule, the “egr1 mRNA (corrected with β-actin)” value in data set [10] is reported as “increased”. Further, in data set [11], the “c-myc mRNA (corrected with β-actin)” value is “increased”.
